From US7662832B2, “Pyrrolo[2,3-c]pyridine derivatives and processes for the preparation thereof” (priority 2004, dated 2010)
Structures can show the parent of a compound that is named as a salt.

target: Proton Pump (H^+/K^+-ATPase) (Sus scrofa, UniProt P19156); assay: Inhibitory effects on proton pump (H^+/K^+-ATPase) activity; type: biochemical; conditions: hog gastric vesicles; K^+ stimulated H^+/K^+-ATPase activity; 30 minutes at 37° C.
Sequence (P19156 2-1034 limits assumed): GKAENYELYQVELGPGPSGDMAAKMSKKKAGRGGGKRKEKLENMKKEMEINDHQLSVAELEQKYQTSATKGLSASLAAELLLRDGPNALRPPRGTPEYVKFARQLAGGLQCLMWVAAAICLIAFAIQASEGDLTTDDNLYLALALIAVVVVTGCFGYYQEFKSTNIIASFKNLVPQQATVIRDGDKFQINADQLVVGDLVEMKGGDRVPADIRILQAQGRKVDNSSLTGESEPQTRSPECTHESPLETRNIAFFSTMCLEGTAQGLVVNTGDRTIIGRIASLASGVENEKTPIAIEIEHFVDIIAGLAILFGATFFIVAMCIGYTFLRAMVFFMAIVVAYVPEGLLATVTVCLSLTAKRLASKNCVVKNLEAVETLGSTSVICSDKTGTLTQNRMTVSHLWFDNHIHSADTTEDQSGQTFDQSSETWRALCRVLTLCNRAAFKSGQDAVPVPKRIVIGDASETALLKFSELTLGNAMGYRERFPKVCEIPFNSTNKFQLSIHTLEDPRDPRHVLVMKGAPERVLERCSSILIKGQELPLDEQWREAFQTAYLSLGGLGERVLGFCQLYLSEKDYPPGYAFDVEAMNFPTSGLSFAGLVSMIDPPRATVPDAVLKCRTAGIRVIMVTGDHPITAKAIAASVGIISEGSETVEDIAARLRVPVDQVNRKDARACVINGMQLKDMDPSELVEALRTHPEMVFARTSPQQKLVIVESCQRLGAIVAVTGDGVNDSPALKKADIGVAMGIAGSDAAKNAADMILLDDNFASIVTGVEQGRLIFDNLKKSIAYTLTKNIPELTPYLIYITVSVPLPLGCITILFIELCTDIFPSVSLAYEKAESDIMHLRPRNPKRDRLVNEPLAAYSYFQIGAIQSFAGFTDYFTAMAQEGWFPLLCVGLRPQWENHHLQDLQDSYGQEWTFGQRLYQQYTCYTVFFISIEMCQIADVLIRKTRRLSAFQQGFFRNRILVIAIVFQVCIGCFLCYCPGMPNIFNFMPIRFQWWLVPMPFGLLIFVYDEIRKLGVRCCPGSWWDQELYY
Sequence (P18434 whole entry partner): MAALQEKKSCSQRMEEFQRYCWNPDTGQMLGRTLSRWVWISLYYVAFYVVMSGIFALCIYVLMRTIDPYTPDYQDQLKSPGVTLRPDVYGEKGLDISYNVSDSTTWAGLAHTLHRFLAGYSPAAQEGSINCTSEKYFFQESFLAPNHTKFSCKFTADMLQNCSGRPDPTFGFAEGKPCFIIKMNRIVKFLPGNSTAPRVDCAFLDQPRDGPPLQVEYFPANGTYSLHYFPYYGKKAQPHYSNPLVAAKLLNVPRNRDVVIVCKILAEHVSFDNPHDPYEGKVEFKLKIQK

IC50 [nM]	SMILES
331	Cc1c(C)n(Cc2cccc(Cl)c2)c2c(N3CCc4ccccc4C3)nc(C#N)cc12 [Example 689, 1-(3-chlorobenzyl)-7-(3,4-dihydro-1H-isoquinolin-2-yl)-2,3-dimethyl-1H-pyrrolo[2,3-c]pyridin-5-carbonitrile]
393	Cc1[nH]c2c(NCc3ccc(F)cc3)nc(C#N)cc2c1C [Example 910, 7-(4-fluorobenzylamino)-2,3-dimethyl-1H-pyrrolo[2,3-c]pyridin-5-carbonitrile hydrochloride]
90	Cc1c(C)n(Cc2cccc(F)c2)c2c(N(C)Cc3ccc(F)cc3)nccc12 [Example 159, 1-(3-fluorobenzyl)-7-[N-(4-fluorobenzyl)-N-methyl]amino-2,3-dimethyl-1H-pyrrolo[2,3-c]pyridine hydrochloride]
220	CSc1ccc(-c2nccc3c(C)c(C)[nH]c23)cc1 [Example 262, 2,3-dimethyl-7-(4-methylsulfanylphenyl)-1H-pyrrolo[2,3-c]pyridine]
58	CCn1c(C)c(C)c2ccnc(N3CCc4cc(F)ccc4C3C)c21 (stereo not drawn) [Example 562, 2-(1-ethyl-2,3-dimethyl-1H-pyrrolo[2,3-c]pyridin-7-yl)-6-fluoro-1-methyl-1,2,3,4-tetrahydroisoquinoline hydrochloride]
267	Cc1ccc(-c2nccc3c(C)c(C)n(Cc4cccc(F)c4)c23)cc1 [Example 284, 2,3-dimethyl-1-(3-fluorobenzyl)-7-(p-tolyl)-1H-pyrrolo[2,3-c]pyridine hydrochloride]
117	Cc1c(C)n(CC2CC2)c2c(N3CCc4ccccc4C3)nc(C(=O)N3CCCCC3)cc12 [Example 793, [1-cyclopropylmethyl-7-(3,4-dihydro-1H-isoquinolin-2-yl)-2,3-dimethyl-1H-pyrrolo[2,3-c]pyridin-5-yl]-(piperidin-1-yl)-methanone hydrochloride]
39	Cc1c(C)n(CC2CC2)c2c(N3CCc4ccccc4C3)nc(C(=O)N3CCOCC3)cc12 [Example 778, [1-cyclopropylmethyl-7-(3,4-dihydro-1H-isoquinolin-2-yl)-2,3-dimethyl-1H-pyrrolo[2,3-c]pyridin-5-yl]-(morpholin-4-yl)-methanone hydrochloride]
230	COCn1c(C)c(C)c2ccnc(N3CCc4ccccc4C3)c21 [Example 496, 1-methoxymethyl-7-(1,2,3,4-tetrahydroisoquinolin-2-yl)-2,3-dimethyl-1H-pyrrolo[2,3-c]pyridine hydrochloride]
330	Cc1c(C)n(Cc2ccccc2F)c2c(N3CCc4ccccc4C3)nccc12 [Example 483, 1-(2-fluorobenzyl)-7-(1,2,3,4-tetrahydroisoquinolin-2-yl)-2,3-dimethyl-1H-pyrrolo[2,3-c]pyridine hydrochloride]
31	Cc1cccc(Cn2c(C)c(C)c3cc(C(=O)N4CCNCC4)nc(N4CCc5ccccc5C4)c32)c1 [Example 814, [7-(3,4-dihydro-1H-isoquinolin-2-yl)-2,3-dimethyl-1-(3-methylbenzyl)-1H-pyrrolo[2,3-c]pyridin-5-yl]-(piperazin-1-yl)-methanone hydrochloride]
189	Cc1c(C)n(Cc2ccc(C(C)(C)C)cc2)c2c(-c3ccc4ccccc4c3)nccc12 [Example 406, 1-(4-tert-butylbenzyl)-2,3-dimethyl-7-(naphthalen-2-yl)-1H-pyrrolo[2,3-c]pyridine hydrochloride]
15	C=CCn1c(C)c(C)c2cc(C(=O)N3CCCCC3)nc(N3CCc4ccccc4C3)c21 [Example 786, [1-allyl-7-(3,4-dihydro-1H-isoquinolin-2-yl)-2,3-dimethyl-1H-pyrrolo[2,3-c]pyridin-5-yl]-(piperidin-1-yl)-methanone hydrochloride]
200	Cc1cccc(Cn2c(C)c(C)c3ccnc(N4CCc5ccccc5C4)c32)c1 [Example 515, 1-(3-methylbenzyl)-7-(1,2,3,4-tetrahydroisoquinolin-2-yl)-2,3-dimethyl-1H-pyrrolo[2,3-c]pyridine hydrochloride]
37	Cc1c(C)n(Cc2cccc(F)c2)c2c(N3CCc4ccccc4C3)nc(CNC3CC3)cc12 [Example 871, N-[7-(3,4-dihydro-1H-isoquinolin-2-yl)-1-(3-fluorobenzyl)-2,3-dimethyl-1H-pyrrolo[2,3-c]pyridin-5-ylmethyl]-cyclopropylamine hydrochloride]
298	Cc1c(C)n(Cc2cccc(Cl)c2)c2c(N3CCc4ccccc4C3)nc(C(N)=O)cc12 [Example 750, 1-(3-chlorobenzyl)-7-(3,4-dihydro-1H-isoquinolin-2-yl)-2,3-dimethyl-1H-pyrrolo[2,3-c]pyridin-5-carboxamide]
384	Cc1c(C)n(Cc2ccccc2)c2c(NCc3ccc(F)cc3)nc(C(=O)N3CCCCC3)cc12 [Example 908, [1-benzyl-7-(4-fluorobenzylamino)-2,3-dimethyl-1H-pyrrolo[2,3-c]pyridin-5-yl]-(piperidin-1-yl)-methanone hydrochloride]
151	Cc1c(C)n(CC2CC2)c2c(CN(C)c3ccc(F)cc3)nccc12 [Example 112, N-(1-cyclopropylmethyl-2,3-dimethyl-1H-pyrrolo[2,3-c]pyridin-7-ylmethyl)-N-(4-fluorophenyl)-methylamine hydrochloride]

IC50 [nM]	SMILES
430	Cc1ccc(Cn2c(C)c(C)c3ccnc(COc4ccc(C)cc4)c32)cc1 [Example 17, 2,3-dimethyl-1-(4-methylbenzyl)-7-(p-tolyloxymethyl)-1H-pyrrolo[2,3-c]pyridine hydrochloride]
330	C=Cc1ccc(-c2nccc3c(C)c(C)n(Cc4ccc(F)cc4)c23)cc1 [Example 258, 2,3-dimethyl-1-(4-fluorobenzyl)-7-(4-vinylphenyl)-1H-pyrrolo[2,3-c]pyridine hydrochloride]
59	CCn1c(C)c(C)c2ccnc(N3CCc4ccccc4C3C)c21 (stereo not drawn) [Example 554, 2-(1-ethyl-2,3-dimethyl-1H-pyrrolo[2,3-c]pyridin-7-yl)-1-methyl-1,2,3,4-tetrahydroisoquinoline hydrochloride]
1980	Cc1[nH]c2c(-c3ccc(F)cc3)nccc2c1C [Example 325, 7-(4-fluorophenyl)-2,3-dimethyl-1H-pyrrolo[2,3-c]pyridine hydrochloride]
36	Cc1c(C)n(Cc2cccc(Cl)c2)c2c(N3CCc4ccccc4C3)nc(-c3nnnn3C)cc12 [Example 853, 2-[1-(3-chlorobenzyl)-2,3-dimethyl-5-(1-methyl-1H-tetrazol-5-yl)-1H-pyrrolo[2,3-c]pyridin-7-yl]-1,2,3,4-tetrahydroisoquinoline]
73	Cc1c(C)n(CC2CC2)c2c(NCc3ccc(Cl)cc3)nccc12 [Example 227, 7-(4-chlorobenzylamino)-1-cyclopropylmethyl-2,3-dimethyl-1H-pyrrolo[2,3-c]pyridine hydrochloride]
420	CCC1c2ccccc2CCN1c1nccc2c(C)c(C)[nH]c12 (stereo not drawn) [Example 574, 2-(2,3-dimethyl-1H-pyrrolo[2,3-c]pyridin-7-yl)-1-ethyl-1,2,3,4-tetrahydroisoquinoline hydrochloride]
87	Cc1c(C)n(Cc2ccccc2)c2c(N3CCc4ccccc4C3)nc(CN3CCN(C)CC3)cc12 [Example 883, 2-[1-benzyl-2,3-dimethyl-5-(4-methylpiperazin-1-ylmethyl)-1H-pyrrolo[2,3-c]pyridin-7-yl]-1,2,3,4-tetrahydroisoquinoline hydrochloride]
200	Cc1c(C)n(CC2CC2)c2c(N(C)Cc3ccc(F)cc3)nccc12 [Example 144, 1-cyclopropylmethyl-7-[N-(4-fluorobenzyl)-N-methyl]amino-2,3-dimethyl-1H-pyrrolo[2,3-c]pyridine hydrochloride]
231	Cc1ccc(Cn2c(C)c(C)c3ccnc(-c4ccc(C)cc4)c32)cc1 [Example 279, 2,3-dimethyl-1-(4-methylbenzyl)-7-(p-tolyl)-1H-pyrrolo[2,3-c]pyridine hydrochloride]
267	Cc1c(C)n(CC2CC2)c2c(N3CCc4ccccc4C3)nc(C(=O)O)cc12 [Example 740, 1-cyclopropylmethyl-7-(3,4-dihydro-1H-isoquinolin-2-yl)-2,3-dimethyl-1H-pyrrolo[2,3-c]pyridin-5-carboxylic acid]
100	Cc1c(C)n(Cc2ccccc2)c2c(CCc3ccccc3)nccc12 [Example 442, 1-benzyl-2,3-dimethyl-7-phenethyl-1H-pyrrolo[2,3-c]pyridine hydrochloride]
59	CCn1c(C)c(C)c2ccnc(N3CCc4ccccc4C3)c21 [Example 481, 1-ethyl-7-(1,2,3,4-tetrahydroisoquinolin-2-yl)-2,3-dimethyl-1H-pyrrolo[2,3-c]pyridine hydrochloride]
200	Cc1c(C)n(Cc2ccc(Cl)s2)c2c(N3CCc4ccccc4C3)nccc12 [Example 514, 1-(5-chlorothiophene-2-ylmethyl)-7-(1,2,3,4-tetrahydroisoquinolin-2-yl)-2,3-dimethyl-1H-pyrrolo[2,3-c]pyridine hydrochloride]
424	CC=Cn1c(C)c(C)c2ccnc(CNc3ccc(F)cc3)c21 [Example 108, N-(2,3-dimethyl-1-propenyl-1H-pyrrolo[2,3-c]pyridin-7-ylmethyl)-4-fluorophenylamine hydrochloride]
24	CCCn1c(C)c(C)c2cc(C(=O)N3CCN(C)CC3)nc(N3CCc4ccccc4C3)c21 [Example 825, [7-(3,4-dihydro-1H-isoquinolin-2-yl)-2,3-dimethyl-1-propyl-1H-pyrrolo[2,3-c]pyridin-5-yl]-(4-methylpiperazin-1-yl)-methanone hydrochloride]
331	CCn1c(C)c(C)c2cc(C(=O)O)nc(N3CCc4ccccc4C3)c21 [Example 738, 7-(3,4-dihydro-1H-isoquinolin-2-yl)-1-ethyl-2,3-dimethyl-1H-pyrrolo[2,3-c]pyridin-5-carboxylic acid]

SMILES	IC50 [nM]
C=CCn1c(C)c(C)c2ccnc(N3CCc4ccccc4C3)c21 [Example 489, 1-allyl-7-(1,2,3,4-tetrahydroisoquinolin-2-yl)-2,3-dimethyl-1H-pyrrolo[2,3-c]pyridine p-toluenesulfonate]	3
